The source of these data is ChEMBL document CHEMBL4420076, “Amylin and calcitonin receptor agonist” (2017).

Numbered stars: 1 amine (or outer) side, 2 acyl side, 3 side chain; on linkers, the order of the positions; unused ones are H or OH. Peptide text beside a SMILES is read from it. * marks the point of attachment. C20 diacid = O=C(O)CCCCCCCCCCCCCCCCCCC(=O)*; C18 diacid = O=C(O)CCCCCCCCCCCCCCCCC(=O)*; C16 diacid = O=C(O)CCCCCCCCCCCCCCC(=O)*; γGlu = O=C(O)[C@H](CCC(=O)[*:2])N[*:1]

Data set [1] relates to Rattus norvegicus. Nature of the data set: Reduction in food intake in Sprague-Dawley rat at 3 nmol/kg measured 0 to 24 hrs post dose relative to control. The class given is functional. Also on record: scale not given: the % may be the effect or the level left.
Data set [2] concerns Rattus norvegicus. Nature of the data set: Reduction in food intake in Sprague-Dawley rat at 3 nmol/kg measured 24 to 48 hrs post dose relative to control. The class given is functional. Also on record: scale not given: the % may be the effect or the level left.
Data set [3] deals with T1, Amylin receptor AMY3; CALCR/RAMP3 (Homo sapiens, UniProt O60896+P30988).
T1 sequence (P30988 whole entry): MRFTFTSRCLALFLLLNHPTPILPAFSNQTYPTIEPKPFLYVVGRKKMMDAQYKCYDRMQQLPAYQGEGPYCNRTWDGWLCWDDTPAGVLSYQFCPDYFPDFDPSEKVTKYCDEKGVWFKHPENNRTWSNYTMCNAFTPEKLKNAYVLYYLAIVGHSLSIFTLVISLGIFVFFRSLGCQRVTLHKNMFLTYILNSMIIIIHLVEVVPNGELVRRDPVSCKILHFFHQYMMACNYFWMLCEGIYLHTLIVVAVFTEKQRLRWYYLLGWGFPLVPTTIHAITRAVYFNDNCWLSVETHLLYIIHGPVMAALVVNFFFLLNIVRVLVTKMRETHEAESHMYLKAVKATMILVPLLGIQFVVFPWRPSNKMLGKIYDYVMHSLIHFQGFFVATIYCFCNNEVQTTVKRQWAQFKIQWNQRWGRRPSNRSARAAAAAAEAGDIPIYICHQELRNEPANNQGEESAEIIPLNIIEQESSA
T1 sequence (O60896 whole entry): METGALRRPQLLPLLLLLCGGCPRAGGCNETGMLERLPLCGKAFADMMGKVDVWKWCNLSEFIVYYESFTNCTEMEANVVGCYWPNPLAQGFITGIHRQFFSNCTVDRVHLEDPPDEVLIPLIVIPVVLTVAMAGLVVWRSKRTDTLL
Nature of the data set: Agonist activity at human amylin receptor expressed in BHK570 cells co-expressing RAMP3 assessed as increase in intracellular cAMP concentration incubated for 3 hrs in absence of albumin by CRE luciferase reporter gene assay. The class given is functional, cell-based.

Data set [4] has as its target T2, Calcitonin receptor (Homo sapiens, UniProt P30988).
T2 sequence (P30988 whole entry): T1 sequence (P30988 whole entry)
Nature of the data set: Agonist activity at human calcitonin receptor expressed in BHK570 cells assessed as increase in intracellular cAMP concentration incubated for 3 hrs in absence of albumin by CRE luciferase reporter gene assay. The class given is functional, cell-based. In general terms: A reporter such as luciferase makes a cellular process visible.

Data set [5] in a line: Solubility in 100 mM glycylglycine buffer at pH 3.0 incubated for 18 hrs by UPLC analysis. The class given is physicochemical.
The nature of data set [6]: Solubility in 100 mM glycylglycine buffer at pH 4.0 incubated for 18 hrs by UPLC analysis. The class given is physicochemical.
Data set [7] can be described thus: Solubility in 100 mM bistrispropane buffer at pH 6.0 incubated for 18 hrs by UPLC analysis. The class given is physicochemical.
The nature of data set [8]: Solubility in 100 mM glycylglycine buffer at pH 5.0 incubated for 18 hrs by UPLC analysis. The class given is physicochemical.
A short description of data set [9]: Solubility in 100 mM bistrispropane buffer at pH 6.5 incubated for 18 hrs by UPLC analysis. The class given is physicochemical.
The nature of data set [10]: Solubility in 100 mM bistrispropane buffer at pH 7.0 incubated for 18 hrs by UPLC analysis. The class given is physicochemical.
Data set [11] in a line: Solubility in 100 mM bistrispropane buffer at pH 7.5 incubated for 18 hrs by UPLC analysis. The class given is physicochemical.
Data set [12] in a line: Solubility in 100 mM bistrispropane buffer at pH 8.0 incubated for 18 hrs by UPLC analysis. The class given is physicochemical.
In data set [13] the target is T1, Amylin receptor AMY3; CALCR/RAMP3. In words: Displacement of [125I]-labeled rat amylin from human amylin receptor expressed in BHK tkts13 whole cells co-expressing RAMP3 incubated for 60 mins by scintillation proximity assay. The class given is cell-based. (In general: In a radioligand displacement assay an active substance lowers the binding of a labelled ligand.)

Data set [14] addresses T2, Calcitonin receptor. Nature of the data set: Displacement of [125I]-labeled human calcitonin from human calcitonin receptor expressed in BHK tkts13 whole cells incubated for 60 mins by scintillation proximity assay. The class given is cell-based.
Data set [15] deals with T1, Amylin receptor AMY3; CALCR/RAMP3. In words: Agonist activity at human amylin receptor expressed in BHK570 cells co-expressing RAMP3 assessed as increase in intracellular cAMP concentration incubated for 3 hrs in presence of 10% FBS by CRE luciferase reporter gene assay. The class given is functional, cell-based.
For data set [16], the target named is T2, Calcitonin receptor. In words: Agonist activity at human calcitonin receptor expressed in BHK570 cells assessed as increase in intracellular cAMP concentration incubated for 3 hrs in presence of 10% FBS by CRE luciferase reporter gene assay. The class given is functional, cell-based.

For `CC(C)C[C@H](NC(=O)[C@H](C)NC(=O)[C@H](C)NC(=O)[C@@H](NC(=O)[C@H](CO)NC(=O)[C@H](CC(C)C)NC(=O)[C@H](CCC(=O)O)NC(=O)[C@H](CO)NC(=O)[C@H](C)NC(=O)[C@H](CCC(=O)O)NC(=O)CCCCCCCCCCCCCCC(=O)O)[C@@H](C)O)C(=O)NCC(=O)N[C@@H](CCCNC(=N)N)C(=O)N[C@@H](CC(C)C)C(=O)N[C@@H](CO)C(=O)N[C@@H](C)C(=O)N[C@@H](CCC(=O)O)C(=O)N[C@@H](CC(C)C)C(=O)N[C@@H](Cc1cnc[nH]1)C(=O)N[C@@H](CCC(=O)O)C(=O)N[C@@H](CC(C)C)C(=O)N[C@@H](C)C(=O)N[C@H](C(=O)N[C@@H](CC(C)C)C(=O)N1CCC[C@H]1C(=O)N[C@@H](CCCNC(=N)N)C(=O)N[C@H](C(=O)N[C@@H](CCC(=O)O)C(=O)N[C@H](C(=O)NCC(=O)N1CCC[C@H]1C(=O)N[C@@H](CCC(=O)O)C(=O)N[C@@H](CO)C(=O)N1CCC[C@H]1C(N)=O)[C@@H](C)O)[C@@H](C)O)[C@@H](C)O` ({C16 diacid}-EASELSTAALGRLSAELHELATLPRTETGPESP-NH2), the Activity in data set [1] stood at 63%; in data set [2], 9%. The 50% effective concentration (EC50) is 0.008 nM in data set [3] and 0.004 nM in data set [4]. The solubility at 18 h in [5], in data set [6], in [7], in data set [8], in data set [9] and in [10] was no less than 200 µM in each case. In addition, the solubility at 18 h in data set [11] and in data set [12] was no less than 200 µM each time. Moreover, the 50% inhibitory concentration (IC50) in [13] is 0.498 nM; in data set [14], 0.413 nM.

As to `CC(C)C[C@H](NC(=O)[C@H](CCC(=O)O)NC(=O)[C@H](Cc1cnc[nH]1)NC(=O)[C@H](CC(C)C)NC(=O)[C@H](CCC(=O)O)NC(=O)[C@H](C)NC(=O)[C@H](CO)NC(=O)[C@H](CC(C)C)NC(=O)[C@H](CCCNC(=N)N)NC(=O)CNC(=O)[C@H](CC(C)C)NC(=O)[C@@H](NC(=O)[C@H](C)NC(=O)[C@@H](NC(=O)[C@H](CO)NC(=O)[C@H](CC(C)C)NC(=O)[C@H](CCC(=O)O)NC(=O)[C@@H]1CCCN1C(=O)[C@H](C)NC(=O)[C@H](CCC(=O)O)NC(=O)CCCCCCCCCCCCCCCCC(=O)O)[C@@H](C)O)C(C)C)C(=O)N[C@@H](C)C(=O)N[C@H](C(=O)N[C@@H](CC(C)C)C(=O)N1CCC[C@H]1C(=O)N[C@@H](CCCNC(=N)N)C(=O)N[C@H](C(=O)N[C@@H](CCC(=O)O)C(=O)N[C@H](C(=O)NCC(=O)N1CCC[C@H]1C(=O)N[C@@H](CCC(=O)O)C(=O)N[C@@H](CO)C(=O)N1CCC[C@H]1C(N)=O)[C@@H](C)O)[C@@H](C)O)[C@@H](C)O` ({C18 diacid}-EAPELSTAVLGRLSAELHELATLPRTETGPESP-NH2), the Activity in data set [1] is reported as 52%; in [2] it was 0%. For the same compound, the EC50 is 0.01 nM in data set [3] and 0.007 nM in data set [4]. Also, the solubility at 18 h in data set [5], in data set [6], in data set [7], in [8], in data set [9] and in [10] was no less than 200 µM throughout. Further, the solubility at 18 h in data set [11] and in [12] was no less than 200 µM in each case. Also, the IC50 in [13] is 0.352 nM; in [14] it was 0.309 nM.

In the case of `CC(C)C[C@H](NC(=O)[C@H](CCC(=O)O)NC(=O)[C@H](C)NC(=O)[C@H](CO)NC(=O)[C@H](CC(C)C)NC(=O)[C@H](CCCNC(=N)N)NC(=O)CNC(=O)[C@H](CC(C)C)NC(=O)[C@@H](NC(=O)[C@H](C)NC(=O)[C@@H](NC(=O)[C@H](CO)NC(=O)[C@H](CC(C)C)NC(=O)[C@H](CCC(=O)O)NC(=O)[C@H](CO)NC(=O)[C@H](C)NC(=O)[C@H](CCC(=O)O)NC(=O)CCCCCCCCCCCCCCCCC(=O)O)[C@@H](C)O)C(C)C)C(=O)N[C@@H](C)C(=O)N[C@@H](CCC(=O)O)C(=O)N[C@@H](CC(C)C)C(=O)N[C@@H](C)C(=O)N[C@H](C(=O)N[C@@H](CC(C)C)C(=O)N1CCC[C@H]1C(=O)N[C@@H](CCCNC(=N)N)C(=O)N[C@H](C(=O)N[C@@H](CCC(=O)O)C(=O)N[C@H](C(=O)NCC(=O)N1CCC[C@H]1C(=O)N[C@@H](CCC(=O)O)C(=O)N[C@@H](CO)C(=O)N1CCC[C@H]1C(N)=O)[C@@H](C)O)[C@@H](C)O)[C@@H](C)O` ({C18 diacid}-EASELSTAVLGRLSAELAELATLPRTETGPESP-NH2), the Activity in data set [1] is 73%; in data set [2], 39%. Also, the EC50 in data set [3] was 0.008 nM; in [4], 0.007 nM. For the same compound, the solubility at 18 h in [5], in [7], in data set [8], in data set [9], in data set [10] and in data set [11] was no less than 200 µM in each case. The same compound displayed a solubility at 18 h in data set [12] of no less than 200 µM. Further, the IC50 in data set [14] was 0.752 nM.

Take `CC(C)C[C@H](NC(=O)[C@H](C)NC(=O)[C@H](C)NC(=O)[C@@H](NC(=O)[C@H](CO)NC(=O)[C@H](CC(C)C)NC(=O)[C@H](CCC(=O)O)NC(=O)[C@H](CO)NC(=O)[C@H](C)NC(=O)CC[C@H](NC(=O)CCCCCCCCCCCCCCCCCCC(=O)O)C(=O)O)[C@@H](C)O)C(=O)NCC(=O)N[C@@H](CCCNC(=N)N)C(=O)N[C@@H](CC(C)C)C(=O)N[C@@H](CO)C(=O)N[C@@H](C)C(=O)N[C@@H](CCC(=O)O)C(=O)N[C@@H](CC(C)C)C(=O)N[C@@H](Cc1cnc[nH]1)C(=O)N[C@@H](CCC(=O)O)C(=O)N[C@@H](CC(C)C)C(=O)N[C@@H](C)C(=O)N[C@H](C(=O)N[C@@H](CC(C)C)C(=O)N1CCC[C@H]1C(=O)N[C@@H](Cc1cnc[nH]1)C(=O)N[C@H](C(=O)N[C@@H](CCC(=O)O)C(=O)N[C@H](C(=O)NCC(=O)N[C@@H](CO)C(=O)NCC(=O)N[C@@H](CO)C(=O)N1CCC[C@H]1C(N)=O)[C@@H](C)O)[C@@H](C)O)[C@@H](C)O` ({C20 diacid-γGlu}-ASELSTAALGRLSAELHELATLPHTETGSGSP-NH2): the Activity in [1] turned out to be 55%; in data set [2] it was 62%. Besides, the EC50 in data set [3] is 0.027 nM; in data set [4], 0.018 nM; in data set [15], 0.185 nM; in data set [16], 0.022 nM. In addition, the solubility at 18 h in [5], in data set [6], in data set [7], in data set [8], in data set [9] and in [10] was no less than 200 µM each time. The solubility at 18 h in data set [11] and in [12] was no less than 200 µM throughout. Moreover, the IC50 was 0.608 nM in data set [13] and 0.442 nM in data set [14].

Broadly, the EC50 is the concentration at which the effect is half-maximal. What is called solubility is the concentration that dissolves in the medium under given conditions. A word on the IC50: it is the concentration that gives 50% inhibition.
